These results are taken from patent publication US6020328A, “20-keto-11β-arylsteroids and their derivatives having agonist or antagonist hormonal properties” (Research Triangle Institute, priority 1998, dated 2000).

For test [1], the system named is Human T-47D breast cells. Briefly: T-47D cell proliferation, agonist format. It counts as cell-based. The conditions noted are these: T47D, 0.01 to 10 nM, maximum at any dose, read-out: Cell Proliferation Agonist maximum % Stim. Here is the method: (§1) Human T-47D breast cells grown in nutrient media were incubated with the standard progestin R5020 alone or with R5020 plus test compound and then assessed by standard procedures for proliferation using incorporation of [^3 H]-thymidine as the measurement. […] The maximum % inhibition (a measure of the efficacy of the compounds) is also given. In the agonist format of this assay the compounds were tested at concentrations ranging from 0.01 to 10 nM and the maximum % stimulation at any dose is listed in Table 2. […] However, the presence of a very polar hydroxyl group in the 17α-position greatly diminishes antiprogestational activity and this holds even when the OH is separated from the 17-carbon atom by a methylene group.

In test [2] the test system is Human T-47D breast cells. The test is described as follows: T-47D cell proliferation, antagonist format (inhibition of 0.15 nM R5020-mediated proliferation). Format: cell-based. The conditions noted are these: T47D; for EC50: inhibition of 0.15 nM R5020-mediated proliferation, N.D. not detected; for Emax: maximum % inhibition, 0.15 nM R5020, read-out: Cell Proliferation Antagonist maximum % Inhib. Here is the method:
as §1

In test [3] the target is progestin receptor (hPR). Briefly: progestin receptor binding. The conditions noted are these: cytosol from human T-47D breast cells; [3H]-R5020; read-out: Receptor Binding Affinity hPR IC50.
Source text: However, the receptors were of human origin and a different radioligand was used. Thus, for progestin receptor binding the receptor was obtained in cytosol from human T-47D breast cells and [^3 H]-R5020 was used as the radioligand. Data are expressed as IC50 values, i.e., the concentration of compound that inhibits the radioligand binding by 50%.
Test [4] has as its system rabbits. Briefly: McGinty test (agonist, test compound alone). Format: in vivo, rabbit.
Procedure: Progestational activity and antiprogestational activity were determined in rabbits by means of the McGinty test (test compound alone, procedure of McGinty et al., Endocrinology, 24:829-832 (1939)) or anti-McGinty test (test compound plus progesterone, procedure of Tamara et al., Jpn. J. Fertil. Steril. 24:48-81 (1979)). Results were scored according to McPhail (McPhail, J. Physiol., 83:146 (1934)).
Test [5] concerns rabbits. Briefly: anti-McGinty test (antagonist, test compound plus progesterone). Format: in vivo, rabbit. Particulars: progesterone standard; printed under first dose column, own dose not stated.

The structures appear in SMILES notation.

As for `CCC(=O)O[C@]1(C(C)=O)CC[C@H]2[C@@H]3CCC4=CC(=O)CCC4=C3[C@@H](c3ccc4c(ccn4C)c3)C[C@@]21C` [11β-(1-Methylindol-5-yl)-17α-propionyloxy-19-norpregna-4,9-diene-3,20-dione], the Emax is 7% in test [1] and 107% in test [2]. The molecule further yielded a concentration for a half-maximal effect (EC50) in test [2] of 2.4 nM. For the same molecule, the IC50 in test [3] stood at 2.3 nM. Also, the “McPhail Index, McGinty Assay (Agonist)” value in test [4] (dose 0.3 micrograms), in test [4] (dose 3 micrograms) and in test [4] (dose 30 micrograms) was 0 +/- 0 in each case.
On to `C#C[C@]1(C(C)=O)CC[C@H]2[C@@H]3CCC4=CC(=O)CCC4=C3[C@@H](c3ccc(N(C)C)cc3)C[C@@]21C` [I 4-Me2 N H O H --CCH H, 11β-(4-(N,N-Dimethylamino)phenyl)-17α-ethynyl-19-norpregna-4,9-diene-3,20-dione], for which the Emax was determined as 12% in test [1] and 101% in test [2]. For the same molecule, in test [2], the EC50 turned out to be 0.4 nM. Besides, the concentration for half-maximal inhibition (IC50) in test [3] stood at 2.5 nM. For the same molecule, the “McPhail Index, McGinty Assay (Agonist)” value is recorded as 0.1 +/- 0.1 in test [4] (dose 0.3 micrograms), 0.2 +/- 0.2 in test [4] (dose 3 micrograms) and 0.2 +/- 0.2 in test [4] (dose 30 micrograms).
Regarding `CCC(=O)O[C@]1(C(C)=O)CC[C@H]2[C@@H]3CCC4=CC(=O)CCC4=C3[C@@H](c3ccc(N(C)C)cc3)C[C@@]21C` [I 4-Me2 N H O H --O--CO--C2 H5 H, 11β-[4-(N,N-dimethylamino)phenyl]-17α-propionyloxy-19-norpregna-4,9-diene-3,10-dione], the Emax in test [1] was 4%; in test [2], 110%. In test [2], a half-maximal effect (EC50) was put at 0.4 nM. For the same molecule, the 50% inhibitory concentration (IC50) in test [3] worked out at 1.3 nM. Besides, the “McPhail Index, McGinty Assay (Agonist)” value in test [4] (dose 0.3 micrograms), in test [4] (dose 3 micrograms) and in test [4] (dose 30 micrograms) was 0 +/- 0 in each case.
In the case of `CCC(=O)O[C@]1(C(C)=O)CC[C@H]2[C@@H]3CCC4=CC(=O)CCC4=C3[C@@H](c3ccc(N4CCCCC4)cc3)C[C@@]21C` [11β-(4-(N-piperidino)phenyl)-17α-propionyloxy-19-norpregna-4,9-diene-3,20-dione], the Emax is -16% in test [1] and 111% in test [2]. In test [2], this molecule registered a concentration for a half-maximal effect (EC50) of 1 nM. In addition, the IC50 in test [3] turned out to be 2 nM. The “McPhail Index, McGinty Assay (Agonist)” value in test [4] (dose 0.3 micrograms), in test [4] (dose 3 micrograms) and in test [4] (dose 30 micrograms) was 0 +/- 0 throughout.
With `CC[C@]1(C(C)=O)CC[C@H]2[C@@H]3CCC4=CC(=O)CCC4=C3[C@@H](c3ccc(N(C)C)cc3)C[C@@]21C` [I 4-Me2 N H O H C2 H5 H, 11β-[4-(N,N-dimethylamino)phenyl]-17α-ethyl-19-norpregna-4,9-diene-3,20-dione], the results for the Emax in test [1] and in test [2] were 8% and 110%, respectively. The same molecule yielded an EC50 in test [2] of 0.3 nM. Moreover, in test [3], the IC50 is 0.6 nM. Besides, the “McPhail Index, McGinty Assay (Agonist)” value in test [4] (dose 0.3 micrograms) is 0.2 +/- 0.1; in test [4] (dose 3 micrograms), 0.3 +/- 0.2; in test [4] (dose 30 micrograms), 0.3 +/- 0.26.
For `CC(=O)[C@@]1(OC(=O)c2ccccc2)CC[C@H]2[C@@H]3CCC4=CC(=O)CCC4=C3[C@@H](c3ccc(N(C)C)cc3)C[C@@]21C` [I 4-Me2 N H O H --O--CO--C6 H5 H, 11β-[4-(N,N-Dimethylamino)phenyl]-17α-benzoyloxy-19-norpregna-4,9-diene-3,20-dione], the Emax came to 18% in test [1] and 69% in test [2]. Also, it took 6.4 nM to reach a half-maximal effect in test [2] (EC50). For the same molecule, the 50% inhibitory concentration (IC50) in test [3] is 24 nM. In addition, the “McPhail Index, McGinty Assay (Agonist)” value in test [4] (dose 0.3 micrograms), in test [4] (dose 3 micrograms) and in test [4] (dose 30 micrograms) was 0 +/- 0 in each case.
Consider `CCC(=O)O[C@]1(C(C)=O)CC[C@H]2[C@@H]3CCC4=CC(=O)CCC4=C3[C@@H](c3ccc(N4CCCC4)cc3)C[C@@]21C` [17α-Propionyloxy-11β-[4-(N-pyrrolidino)phenyl-19-norpregna-4,9-diene-3-20-dione], for which the Emax was -1% in test [1] and 107% in test [2]. The EC50 in test [2] amounted to 0.9 nM. The half-maximal inhibitory concentration (IC50) in test [3] was found to be 4.8 nM. Also, the entries for the “McPhail Index, McGinty Assay (Agonist)” value in test [4] (dose 0.3 micrograms), in test [4] (dose 3 micrograms) and in test [4] (dose 30 micrograms) were 0 +/- 0, 0 +/- 0 and 0.1 +/- 0.1, respectively.
Take `CC(=O)O[C@]1(C(C)=O)CC[C@H]2[C@@H]3CCC4=CC(=O)CCC4=C3[C@@H](c3ccc4c(c3)CCN4C)C[C@@]21C` [17α-Acetoxy-11β-(1-methyl-2,3-dihydroindol-5-yl)-19-norpregna-4,9-diene-3,20-dione]: the Emax in test [1] was 6%; in test [2] it was 103%. This molecule also gave an EC50 in test [2] of 1.5 nM. In addition, in test [3], the concentration for half-maximal inhibition (IC50) was 2 nM. For the same molecule, the “McPhail Index, McGinty Assay (Agonist)” value is 0.6 +/- 0.1 in test [4] (dose 0.3 micrograms), 0.2 +/- 0.1 in test [4] (dose 3 micrograms) and 0.2 +/- 0.1 in test [4] (dose 30 micrograms).
Consider `CC(=O)[C@@]1(OC(=O)Cc2ccccc2)CC[C@H]2[C@@H]3CCC4=CC(=O)CCC4=C3[C@@H](c3ccc(N(C)C)cc3)C[C@@]21C` [I 4-Me2 N H O H O--CO--CH2 C6 H5 H, 11β-[4-(N,N-Dimethylamino)phenyl]-17α-phenylacetoxy-19-norpregna-4,9-diene-3,20-dione], for which the Emax in test [1] worked out at 16%. Further, in test [2], a half-maximal response (EC50) required 1.9 nM and the Emax was determined as 99%. The IC50 in test [3] was 7.9 nM.
Regarding `COC(=O)[C@]1(C(C)=O)CC[C@H]2[C@@H]3CCC4=CC(=O)CCC4=C3[C@@H](c3ccc(N(C)C)cc3)C[C@@]21C` [I 4-Me2 N H O H COOCH3 H, 17α-carbomethoxy-11β-(4-(N,N-dimethylamino)phenyl)-19-norpregna-4,9-diene-3,20-dione], the Emax was 24% in test [1] and 92% in test [2]. Moreover, in test [2], a half-maximal effect (EC50) was put at 0.4 nM. For the same molecule, the IC50 in test [3] was found to be 0.7 nM. The “McPhail Index, McGinty Assay (Agonist)” value in test [4] (dose 0.3 micrograms) was 0 +/- 0; in test [4] (dose 3 micrograms), 0 +/- 0; in test [4] (dose 30 micrograms) it was 0.07 +/- 0.07.
`CC(=O)O[C@]1(C(C)=O)CC[C@H]2[C@@H]3CCC4=CC(=O)CCC4=C3[C@@H](c3ccc(N(C)C)nc3)C[C@@]21C` [17α-Acetoxy-11β-[2-(N,N-dimethylamino)pyrid-5-yl]-19-norpregna-4,9-diene-3,20-dione]: the Emax in test [1] is 5%; in test [2], 92%. The same molecule gave an EC50 in test [2] of 2.9 nM. Further, the IC50 in test [3] was 11 nM. Further, the “McPhail Index, McGinty Assay (Agonist)” value in test [4] (dose 0.3 micrograms), in test [4] (dose 3 micrograms) and in test [4] (dose 30 micrograms) was 0 +/- 0 each time.
Turning to `CC(=O)[C@H]1CC[C@H]2[C@@H]3CCC4=CC(=O)CC[C@]4(C)[C@H]3CC[C@]12C` [Progesterone, reference compound], in test [3], the IC50 was 3.3 nM. Also, in test [4] (progesterone control, printed under first dose column, own dose not stated), the “McPhail Index, McGinty Assay (Agonist), progesterone” value is on record as 2.45 +/- 0.14. Further, the “McPhail Index, McGinty Assay (Antagonist), progesterone (Standard)” value in test [5] is 2.45 +/- 0.14.

A word on the EC50: it is the concentration at which the effect is half-maximal. A lower EC50 goes with a more potent agent. A word on the IC50: it is the concentration needed to halve the response being measured.
